Measured values: ChEMBL document CHEMBL3425453, “Luciferin and derivatives as a DYRK selective scaffold for the design of protein kinase inhibitors” (Eur J Med Chem, 2015)

Biological target: Cyclin-dependent kinase 2 (Homo sapiens) (UniProt P24941)

| SMILES | Tm [°C] |
| --- | --- |
| O=C(O)[C@H]1CSC(c2ccc3cccc(O)c3n2)=N1 | 43.9 |
| O=C(O)[C@H]1CSC(c2ccc3cc(O)ccc3n2)=N1 | 43.4 |
